The results in this text go back to patent publication US9079913B2, “Spiro-oxindole MDM2 antagonists” (The Regents of the University of Michigan, priority 2009, dated 2015).

Data set [1] has as its system Isogenic HCT-116 colon cancer cell lines. Description: cells. The data set is classed as cell-based.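 Note: cells grown in 96-well plates in McCoy's 5A medium with 10% FBS, exposed to compound for 4 days.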
Procedure: Cells were seeded in 96-well flat bottom cell culture plates at a density of 2−3×10^3 cells/well with compounds and incubated for 4 days.
The test system of data set [2] is cancer cell lines with wild-type p53 / mutated or deleted p53 (ATCC). Description: Cell growth assay (WST-8), other cancer cell lines. The data set is classed as cell-based. (In general: Tetrazolium dyes change colour on reduction, which living cells bring about.)
The nature of data set [3]: In vitro microsomal stability, rat. The data set is classed as in vitro ADME.
Data set [4] is described as follows: In vitro microsomal stability, human. In kind it is in vitro ADME.
Data set [5] is described as follows: Pharmacokinetic studies in rats. In kind it is in vivo, rat. To be noted: for oral bioavailability / oral pharmacokinetics in rats (in words): oral dosing. The method, then: Pharmacokinetic studies on MDM2 inhibitors were carried out in rat. For comparison, the MDM2 inhibitor, AT-219, was also studied.
For data set [6], the system named is SJSA-1 xenograft tumors. Description: In vivo efficacy, SJSA-1 xenograft model (tumor volume). Also on record: species or system C.B-17 SCID mice. The conditions noted are these: for % Tumor Growth Inhib. T/C Control 750 mm^3 D29: Exp. No. 3, SJSA-1 xenograft; for % Tumor Growth Inhib. T/C Control 750 mm^3 D24: Exp. No. 2, SJSA-1 xenograft.
Procedure: SJSA-1 tumor cells were harvested with Trypsin (0.05%)-EDTA (0.53 mM) (GIBCO™, Invitrogen Corp.), growth medium added and cells placed on ice. A cell sample was mixed 1:1 with Trypan Blue (GIBCO™, Invitrogen Corp.) and counted on a hemocytometer to determine the number of live/dead cells. Cells were washed once with 1×PBS (GIBCO™, Invitrogen Corp.) and resuspended in PBS. For Matrigel injections, after washing in PBS, cells are resuspended in an ice cold mixture of 1:1 PBS and Matrigel (BD Biosciences, Invitrogen Corp.) for a final Matrigel protein concentration of 5 mg/ml. SJSA-1 tumors were inoculated into C.B-17 SCID mice at 5×10^6 cells in 0.1 ml with Matrigel. Cells were injected s.c. into the flank region of each mouse using a 27 gauge needle.
The size of tumors growing in the mice was measured in two dimensions using calipers. Tumor volume (mm^3)=(A×B2)/2 where A and B are the tumor length and width (in mm), respectively. During treatment, tumor volume and body weight was measured three times a week. […] Mice were kept for an additional 60 days for further observation of tumor growth and toxicity.
Data set [7] can be described thus: Animal weight in SJSA-1 xenograft studies. In kind it is in vivo, C.B-17 SCID mice. The conditions noted are these: SJSA-1 xenograft mice. The method, then: The size of tumors growing in the mice was measured in two dimensions using calipers. Tumor volume (mm^3)=(A×B2)/2 where A and B are the tumor length and width (in mm), respectively. During treatment, tumor volume and body weight was measured three times a week. After the treatment was stopped, tumor volume (FIGS. 7, 9, 11, and 36) and body weight (FIGS. 8, 10, 12, and 37) was measured at least once a week. Mice were kept for an additional 60 days for further observation of tumor growth and toxicity.
Before treatment began, tumors were allowed to grow to 60-140 mm^3 in volume, at which point the blood vessel supplies to the tumor should have been established. Mice with tumors within acceptable size range were randomized into treatment groups of 8 mice for experimental compounds and 10 mice for the Control group. Experimental compounds were given orally, once per day for 2-3 weeks. The Control group received vehicle alone (10% PEG 400: 3% Cremophor: 87% PBS).

Data set [8] deals with recombinant human His-tagged MDM2 protein (residues 1-118) (Homo sapiens (Human), UniProt Q00987). Briefly: Fluorescence-polarization MDM2 binding assay.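 For all read-outs here: fluorescence polarization read after three hours of incubation in potassium phosphate buffer containing bovine gamma globulin and Triton X-100.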 The conditions noted are these: for IC50: Table 19A, FP binding assay, read-out: MDM2 IC50.
Setting [9] is: Homo sapiens, HCT-116, read-out: HCT-116 (p53 wild-type) IC50.
[10] abbreviates: Homo sapiens, LNCaP, read-out: LNCAP (p53 wild-type) IC50.
Where [11] appears, read: Homo sapiens, SJSA-1, read-out: SJSA-1 (p53 wild-type) IC50.
[12] abbreviates: rat, IV, 5 mg/kg, plasma, parent compound.

Entries after “also recorded” stand apart in the source; their conditions may differ. Like-named read-outs stand apart in the source and are kept apart here.

Chain of recombinant human His-tagged MDM2 protein (residues 1-118) (Q00987 1-118): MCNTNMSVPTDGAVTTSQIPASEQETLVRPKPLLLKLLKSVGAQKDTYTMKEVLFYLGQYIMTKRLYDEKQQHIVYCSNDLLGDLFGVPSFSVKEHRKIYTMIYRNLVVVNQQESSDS

For the molecule `CC(C)(C)C[C@H]1N[C@@H](C(=O)N[C@H]2C[C@@](C)(O)C2)[C@H](c2cccc(Cl)c2F)[C@@]12C(=O)Nc1cc(Cl)ccc12` [MI-519-64], the IC50 was over 10 µM in data set [1] (Homo sapiens, HCT-116, read-out: HCT-116 (p53-/-) IC50); under 1 µM in data set [1] (setting [9]); under 1 µM in data set [2] (setting [10]); under 1 µM in data set [2] (setting [11]). In addition, in data set [2], the “cell growth inhibition (in words)” value is on record as “more potent than its epimer MI-519-65; also recorded: effectively inhibit cancer cell growth”. The “% of compound remaining when incubated in rat liver microsomes with NADPH” value in data set [3] (0 min) is 100%; in data set [3] (5 min), 71.95%; in data set [3] (10 min), 64.86%; in data set [3] (15 min), 48.47%; in data set [3] (30 min), 43.38%; in data set [3] (45 min), 41.19%. In data set [3] (60 min), the “% of compound remaining when incubated in rat liver microsomes with NADPH” value turned out to be 43.03%. The “% of compound remaining when incubated in human liver microsomes with NADPH” value in data set [4] (0 min) turned out to be 100%; in data set [4] (5 min), 83.66%; in data set [4] (10 min), 80.61%; in data set [4] (15 min) it was 65.86%; in data set [4] (30 min), 61.26%; in data set [4] (45 min), 55.9%. In addition, in data set [4] (60 min), the “% of compound remaining when incubated in human liver microsomes with NADPH” value worked out at 53.21%. In addition, in data set [5] (setting [12]), the CLz was determined as 30 mL/min/kg. For the same molecule, the Vd in data set [5] (rat, plasma, iv, 5 mg/kg, rat, IV, 5 mg/kg, plasma, parent compound, read-out: Vz) turned out to be 9 L/kg. Besides, the figures for the “% Tumor Growth Inhib. T/C Control 750 mm^3 D29” value in data set [6] (PO 30 mg/kg) and in data set [6] (PO 100 mg/kg) were 20.7% and 5.3%, respectively. Also, the “weight loss in the animals (in words)” value in data set [7] is “without significant weight loss”.

For the molecule `CC(C)(C)C[C@H]1N[C@@H](C(=O)NC2CCC(NS(C)(=O)=O)CC2)[C@H](c2cccc(Cl)c2F)[C@@]12C(=O)Nc1cc(Cl)ccc12` (stereo partly drawn) [MI-772], the IC50 was under 1 µM in data set [8]; over 5 µM in data set [1] (read-out: HCT-116 (p53-/-) IC50, Table 19A, HCT-116 p53-/-, cell growth); under 1 µM in data set [1] (read-out: HCT-116 (p53 wild-type) IC50, Table 19A, HCT-116 p53 wild-type, cell growth); under 1 µM in data set [2] (Table 19A, LNCAP cells, p53 wild-type, cell growth, read-out: LNCAP (p53 wild-type) IC50); over 5 µM in data set [2] (Table 19A, PC-3 cells, deleted p53, cell growth, read-out: PC-3 (deleted p53) IC50); under 1 µM in data set [2] (Table 19A, SJSA-1 cells, p53 wild-type, cell growth, read-out: SJSA-1 (p53 wild-type) IC50). Besides, the “binding to MDM2 (in words)” value in data set [8] (human MDM2 protein) is “high affinities”. In addition, the “relative potency vs epimer, binding and cellular studies (in words)” value in data set [2] is given as “several times more potent than MI-771”. Further, in data set [2] (cancer cell lines with wild-type p53), the “cell growth inhibition (in words)” value is reported as “effectively inhibit cell growth”. Further, the “microsomal stability (in words)” value in data set [3] (rat liver microsomes) and in data set [4] (human liver microsomes) was “very stable” each time. The t1/2 in data set [3] (rat liver microsomes with NADPH) and in data set [4] (human liver microsomes with NADPH) was over 1 h throughout. The “% of compound remaining when incubated in rat liver microsomes with NADPH” value came out at 100.00% in data set [3] (rat liver microsomes, NADPH, 0 min); 93.46% in data set [3] (rat liver microsomes, NADPH, 5 min); 91.15% in data set [3] (rat liver microsomes, NADPH, 10 min); 89.04% in data set [3] (rat liver microsomes, NADPH, 15 min); 88.27% in data set [3] (rat liver microsomes, NADPH, 30 min); 78.65% in data set [3] (rat liver microsomes, NADPH, 45 min). For the same molecule, the “% of compound remaining when incubated in rat liver microsomes with NADPH” value in data set [3] (rat liver microsomes, NADPH, 60 min) is 75.96%. The “% of compound remaining when incubated in human liver microsomes with NADPH” value is given as 100.00% in data set [4] (human liver microsomes, NADPH, 0 min); 95.37% in data set [4] (human liver microsomes, NADPH, 5 min); 86.87% in data set [4] (human liver microsomes, NADPH, 10 min); 82.24% in data set [4] (human liver microsomes, NADPH, 15 min); 77.91% in data set [4] (human liver microsomes, NADPH, 30 min); 63.28% in data set [4] (human liver microsomes, NADPH, 45 min). The “% of compound remaining when incubated in human liver microsomes with NADPH” value in data set [4] (human liver microsomes, NADPH, 60 min) is recorded as 56.87%. The “oral bioavailability / oral pharmacokinetics in rats (in words)” value in data set [5] (rats) is given as “modest oral bioavailability”. In addition, the CLz in data set [5] (setting [12]) stood at 16.7 mL/min/kg. The Vz (in general, a proportionality between amount in the body and measured concentration, not a real space) in data set [5] (setting [12]) worked out at 10.9 L/kg. The “half-life in rats (in words)” value in data set [5] (rats, intravenous and oral) is reported as “long plasma half-life”. Also, in data set [6] (PO 100 mg/kg), the “% Tumor Growth Inhib. T/C Control 750 mm^3 D24” value is 71.1%.

As to `CC(C)(C)C[C@H]1N[C@@H](C(=O)N[C@H]2C[C@@H](O)C2)[C@H](c2cccc(Cl)c2F)[C@@]12C(=O)Nc1cc(Cl)ccc12` (stereo in doubt) [MI-519-63], the IC50 stood at 2 µM in data set [1] (setting [9]), 2.3 µM in data set [2] (setting [10]) and 2.1 µM in data set [2] (setting [11]). Also, the “% of compound remaining when incubated in rat liver microsomes with NADPH” value in data set [3] (0 min) turned out to be 100%; in data set [3] (5 min) it was 66.01%; in data set [3] (10 min) it was 53.79%; in data set [3] (15 min), 46.44%; in data set [3] (30 min) it was 29.41%; in data set [3] (45 min), 27.72%. The “% of compound remaining when incubated in rat liver microsomes with NADPH” value in data set [3] (60 min) amounted to 23.28%. For the same molecule, the “microsomal stability (in words)” value in data set [3] (rat liver microsomes) and in data set [4] (human liver microsomes) was “comparable microsomal stability to MI-219” in each case. Moreover, the “% of compound remaining when incubated in human liver microsomes with NADPH” value in data set [4] (0 min) was 100.00%; in data set [4] (5 min), 77.75%; in data set [4] (10 min), 59.66%; in data set [4] (15 min), 50.42%; in data set [4] (30 min), 31.21%; in data set [4] (45 min), 26.74%. Also, the “% of compound remaining when incubated in human liver microsomes with NADPH” value in data set [4] (60 min) is 21.5%. Moreover, the “% Tumor Growth Inhib. T/C Control 750 mm^3 D24” value in data set [6] (PO 100 mg/kg) turned out to be 0.0%. Besides, in data set [7], the “weight loss in the animals (in words)” value is reported as “without significant weight loss”.

Regarding `C[C@H](N)C(=O)OC1CCC(NC(=O)[C@@H]2N[C@H](CC(C)(C)C)[C@]3(C(=O)Nc4cc(Cl)ccc43)[C@H]2c2cccc(Cl)c2F)CC1` (stereo partly drawn) [MI-774], the IC50 is under 0.1 µM in data set [8]; 5.6 µM in data set [1] (Homo sapiens, HCT-116, read-out: HCT-116 (p53-/-) IC50, Table 19A, HCT-116 p53-/-, cell growth); 0.3 ± 0.1 µM in data set [1] (Homo sapiens, HCT-116, read-out: HCT-116 (p53 wild-type) IC50, Table 19A, HCT-116 p53 wild-type, cell growth); 0.3 µM in data set [2] (Homo sapiens, LNCaP, Table 19A, LNCAP cells, p53 wild-type, cell growth, read-out: LNCAP (p53 wild-type) IC50); 0.3 ± 0.1 µM in data set [2] (Homo sapiens, SJSA-1, Table 19A, SJSA-1 cells, p53 wild-type, cell growth, read-out: SJSA-1 (p53 wild-type) IC50). Moreover, the “oral bioavailability / oral pharmacokinetics in rats (in words)” value in data set [5] (rats) is recorded as “good oral bioavailability”. Further, the “% Tumor Growth Inhib. T/C Control 750 mm^3 D24” value in data set [6] (PO 100 mg/kg) is 21.4%.
